US9708336B2, “Metallo-beta-lactamase inhibitors” (priority 2014, dated 2017)
Structures can show the parent of a compound that is named as a salt. Where two headings read alike, the source gives them in different places.

Experiments:
[1] = system: Escherichia coli expressing NDM-1 (CLB30005); test: Antibiotic potentiation activity: synergistic concentration (MITC95) with imipenem, OD600 growth; type: cell-based; details: for Escherichia coli MITC95: Escherichia coli expressing NDM-1 (CLB30005), 95% growth inhibition; for Escherichia coli expressing NDM-1 (CLB 30005) MITC95: concentration giving 95% inhibition of bacterial growth
Outline: (§1)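 Compound activity is tested with and without imipenem, which is present at 4 μg/ml (or 1 μg/ml) in the well. Bacteria in 1.1× CAMHB are incubated 22–24 h at 35 °C; absorbance gives the growth endpoint.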

[2] = system: Klebsiella pneumoniae expressing VIM-1 (IHMA599644); test: as above; type: cell-based; details: for Klebsiella pneumoniae MITC95: Klebsiella pneumoniae expressing VIM-1 (IHMA599644), 95% growth inhibition; for Klebsiella pneumoniae expressing VIM-1 (IHMA 599644) MITC95: concentration giving 95% inhibition of bacterial growth
Outline: as §1

[3] = system: Escherichia coli expressing NDM-1 (CLB30016); test: as above; type: cell-based; details: for Escherichia coli MITC95: Escherichia coli expressing NDM-1 (CLB30016), 95% growth inhibition; for Escherichia coli expressing NDM-1 (CLB 30016) MITC95: concentration giving 95% inhibition of bacterial growth
Outline: as §1

[4] = system: Serratia marcescens expressing IMP-1 (CL5741); test: as above; type: cell-based; details: for Serratia marcescens MITC95: Serratia marcescens expressing IMP-1 (CL5741), 95% growth inhibition; for Serratia marcescens expressing IMP-1 (CL5741) MITC95: concentration giving 95% inhibition of bacterial growth
Outline: as §1

[5] = target: VIM-1 (Pseudomonas aeruginosa (strain ATCC 15692 / DSM 22644 / CIP 104116 / JCM 14847 / LMG 12228 / 1C / PRS 101 / PAO1), UniProt A0A0F7KYQ8); test: Enzyme activity: determination of IC50, fluorescence assay with CCF2-FA substrate (VIM-1); type: biochemical
[6] = target: NDM-1 (Klebsiella pneumoniae, UniProt C7C422); test: biochemical; type: biochemical; details: read-out: NDM-1 IC50
Chain of NDM-1 (C7C422 whole entry, looked up, species assumed): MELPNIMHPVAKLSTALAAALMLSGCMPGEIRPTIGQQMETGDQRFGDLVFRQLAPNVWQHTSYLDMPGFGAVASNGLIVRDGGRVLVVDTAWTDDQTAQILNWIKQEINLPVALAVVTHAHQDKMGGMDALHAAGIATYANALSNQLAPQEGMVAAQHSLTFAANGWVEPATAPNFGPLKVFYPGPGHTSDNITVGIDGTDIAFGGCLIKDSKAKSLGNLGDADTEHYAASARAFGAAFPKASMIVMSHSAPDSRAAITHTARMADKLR

[7] = target: IMP-1 (Serratia marcescens, UniProt P52699); test: biochemical; type: biochemical; details: read-out: IMP-1 IC50
Chain of IMP-1 (P52699 whole entry, looked up): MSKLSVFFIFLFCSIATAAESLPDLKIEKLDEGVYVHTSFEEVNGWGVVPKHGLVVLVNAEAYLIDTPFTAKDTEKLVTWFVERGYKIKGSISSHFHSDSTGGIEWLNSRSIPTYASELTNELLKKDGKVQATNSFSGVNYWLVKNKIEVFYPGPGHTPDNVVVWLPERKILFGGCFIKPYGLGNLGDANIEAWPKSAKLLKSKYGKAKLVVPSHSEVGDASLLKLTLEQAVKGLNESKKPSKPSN

[8] = NDM-1 enzyme, CCF2-FA fluorescence assay
[9] = IMP-1 enzyme, CCF2-FA fluorescence assay
[10] = fluorescence assay with CCF2-FA substrate, read-out: VIM-1 IC50
[11] = fluorescence assay with CCF2-FA substrate
[12] = VIM-1 enzyme, CCF2-FA fluorescence assay, read-out: VIM-1 IC50
[13] = VIM-1 IC50, fluorescence assay with CCF2-FA substrate

## Cc1ccncc1-c1cccc(S(N)(=O)=O)c1-c1nn[nH]n1 [Example 317, 3-(4-methylpyridin-3-yl)-2-(2H-tetrazol-5-yl)benzenesulfonamide]
[1]
  Escherichia coli MITC95: 0.125 µM
[2]
  Klebsiella pneumoniae MITC95: 18.75 µM
[3]
  Escherichia coli MITC95: 0.1875 µM
[4]
  Serratia marcescens MITC95: 9.375 µM
[5]; VIM-1 IC50, VIM-1 enzyme, CCF2-FA fluorescence assay
  IC50: 46 nM
[6]; [8]
  IC50: 5.38 nM
[7]; [9]
  IC50: 360 nM

## Cc1ccc(-c2cccc(S(N)(=O)=O)c2-c2nnn[nH]2)cc1 [Example 1, 4′-Methyl-2-(1H-tetrazol-5-yl)-[1,1′-biphenyl]-3-sulfonamide]
[1]
  Escherichia coli expressing NDM-1 (CLB 30005) MITC95: 1.489 µM
[2]
  Klebsiella pneumoniae expressing VIM-1 (IHMA 599644) MITC95: 123.3 µM
[3]
  Escherichia coli expressing NDM-1 (CLB 30016) MITC95: 0.7595 µM
[4]
  Serratia marcescens expressing IMP-1 (CL5741) MITC95: 11.96 µM
[5]; [10]
  IC50: 57.6 nM
[6]; [11]
  IC50: 3.77 nM
[7]; [11]
  IC50: 64.8 nM

## NS(=O)(=O)c1cccc(-c2cncnc2)c1-c1nn[nH]n1 [Example 42, 3-pyrimidin-5-yl-2-(2H-tetrazol-5-yl)benzenesulfonamide]
[1]
  Escherichia coli expressing NDM-1 (CLB 30005) MITC95: 1.563 µM
[2]
  Klebsiella pneumoniae expressing VIM-1 (IHMA 599644) MITC95: >200 µM
[3]
  Escherichia coli expressing NDM-1 (CLB 30016) MITC95: 0.7813 µM
[4]
  Serratia marcescens expressing IMP-1 (CL5741) MITC95: 200 µM
[5]; [10]
  IC50: 9960 nM
[6]; [11]
  IC50: 543 nM
[7]; [11]
  IC50: 10500 nM

## NS(=O)(=O)c1cccc(-c2ccc3[nH]ncc3c2)c1-c1nn[nH]n1 [Example 313, 3-(1H-indazol-5-yl)-2-(2H-tetrazol-5-yl)benzenesulfonamide]
[1]
  Escherichia coli MITC95: 0.4635 µM
[2]
  Klebsiella pneumoniae MITC95: 7.031 µM
[3]
  Escherichia coli MITC95: 0.5859 µM
[4]
  Serratia marcescens MITC95: 3.906 µM
[5]; [12]
  IC50: 13.4 nM
[6]; [8]
  IC50: 0.77 nM
[7]; [9]
  IC50: 66.9 nM

## CS(=O)(=O)Nc1ccc(-c2ccnc(S(N)(=O)=O)c2-c2nn[nH]n2)cc1 [Example 206, 4-(4-(methylsulfonamido)phenyl)-3-(2H-tetrazol-5-yl)pyridine-2-sulfonamide]
[1]
  Escherichia coli expressing NDM-1 (CLB 30005) MITC95: 0.1953 µM
[2]
  Klebsiella pneumoniae expressing VIM-1 (IHMA 599644) MITC95: 3.125 µM
[3]
  Escherichia coli expressing NDM-1 (CLB 30016) MITC95: 0.375 µM
[4]
  Serratia marcescens expressing IMP-1 (CL5741) MITC95: 4.125 µM
[5]; [10]
  IC50: 14.2 nM
[6]; [11]
  IC50: 11.4 nM
[7]; [11]
  IC50: 91.5 nM

## Nc1ccc(-c2cccc(S(N)(=O)=O)c2-c2nnn[nH]2)cn1 [Example 298, 3-(6-Aminopyridin-3-yl)-2-(1H-tetrazol-5-yl)benzene sulfonamide, TFA salt]
[1]
  Escherichia coli MITC95: 0.1953 µM
[2]
  Klebsiella pneumoniae MITC95: 12.5 µM
[3]
  Escherichia coli MITC95: 0.04688 µM
[4]
  Serratia marcescens MITC95: 8.333 µM
[5]; [12]
  IC50: 251 nM
[6]; [8]
  IC50: 71.7 nM
[7]; [9]
  IC50: 776 nM

## NS(=O)(=O)c1cccc(-c2ccc(C3CCNC3)cc2)c1-c1nnn[nH]1 (stereo not drawn) [Example 180, 4′-(pyrrolidin-3-yl)-2-(1H-tetrazol-5-yl)-[1,1′-biphenyl]-3-sulfonamide]
[1]
  Escherichia coli expressing NDM-1 (CLB 30005) MITC95: 0.3906 µM
[2]
  Klebsiella pneumoniae expressing VIM-1 (IHMA 599644) MITC95: 4.688 µM
[3]
  Escherichia coli expressing NDM-1 (CLB 30016) MITC95: 0.5 µM
[4]
  Serratia marcescens expressing IMP-1 (CL5741) MITC95: 3.125 µM
[5]; [10]
  IC50: 22.4 nM
[6]; [11]
  IC50: 9.91 nM
[7]; [11]
  IC50: 113 nM

## CS(=O)(=O)Nc1ccc(-c2cccc(S(N)(=O)=O)c2-c2nn[nH]n2)cc1 [Example 82, 4′-[(methylsulfonyl)amino]-2-(2H-tetrazol-5-yl)biphenyl-3-sulfonamide]
[1]
  Escherichia coli expressing NDM-1 (CLB 30005) MITC95: 1.953 µM
[2]
  Klebsiella pneumoniae expressing VIM-1 (IHMA 599644) MITC95: 12.5 µM
[3]
  Escherichia coli expressing NDM-1 (CLB 30016) MITC95: 0.5859 µM
[4]
  Serratia marcescens expressing IMP-1 (CL5741) MITC95: 3.125 µM
[5]; [13]
  IC50: 7.79 nM
[6]; [11]
  IC50: 1.43 nM
[7]; [11]
  IC50: 22.2 nM

## NS(=O)(=O)c1cccc(-c2ccc3nccn3c2)c1-c1nn[nH]n1 [Example 318, 3-(imidazo[1,2-a]pyridin-6-yl)-2-(2H-tetrazol-5-yl)benzenesulfonamide]
[1]
  Escherichia coli MITC95: 0.1953 µM
[2]
  Klebsiella pneumoniae MITC95: 4.688 µM
[3]
  Escherichia coli MITC95: 0.0625 µM
[4]
  Serratia marcescens MITC95: 6.25 µM
[5]; [12]
  IC50: 24.6 nM
[6]; [8]
  IC50: 2.13 nM
[7]; [9]
  IC50: 295 nM

## NS(=O)(=O)c1cccc(-c2cnc3ccoc3c2)c1-c1nn[nH]n1 [Example 311, 3-(furo[3,2-b]pyridin-6-yl)-2-(2H-tetrazol-5-yl)benzenesulfonamide]
[1]
  Escherichia coli MITC95: 0.1953 µM
[2]
  Klebsiella pneumoniae MITC95: 4.688 µM
[3]
  Escherichia coli MITC95: 0.7813 µM
[4]
  Serratia marcescens MITC95: 3.906 µM
[5]; [12]
  IC50: 8.16 nM
[6]; [8]
  IC50: 1.11 nM
[7]; [9]
  IC50: 129 nM

## CC(=O)Nc1ccc(-c2ccnc(S(N)(=O)=O)c2-c2nn[nH]n2)cc1 [Example 214, N-(4-(2-sulfamoyl-3-(2H-tetrazol-5-yl)pyridin-4-yl)phenyl)acetamide]
[1]
  Escherichia coli expressing NDM-1 (CLB 30005) MITC95: 0.1953 µM
[2]
  Klebsiella pneumoniae expressing VIM-1 (IHMA 599644) MITC95: 37.5 µM
[3]
  Escherichia coli expressing NDM-1 (CLB 30016) MITC95: 0.375 µM
[4]
  Serratia marcescens expressing IMP-1 (CL5741) MITC95: 3.344 µM
[5]; [10]
  IC50: 129 nM
[6]; [11]
  IC50: 13.2 nM
[7]; [11]
  IC50: 98.4 nM

## NS(=O)(=O)c1cccc(-c2cnn3ccccc23)c1-c1nn[nH]n1 [Example 98, 3-pyrazolo[1,5-a]pyridin-3-yl-2-(2H-tetrazol-5-yl)benzenesulfonamide]
[1]
  Escherichia coli expressing NDM-1 (CLB 30005) MITC95: 0.9766 µM
[2]
  Klebsiella pneumoniae expressing VIM-1 (IHMA 599644) MITC95: 18.75 µM
[3]
  Escherichia coli expressing NDM-1 (CLB 30016) MITC95: 0.7813 µM
[4]
  Serratia marcescens expressing IMP-1 (CL5741) MITC95: 7.813 µM
[5]; [13]
  IC50: 29.4 nM
[6]; [11]
  IC50: 2.7 nM
[7]; [11]
  IC50: 320 nM

## NS(=O)(=O)c1cccc(-c2cnc3cc[nH]c3c2)c1-c1nn[nH]n1 [Example 310, 3-(1H-pyrrolo[3,2-b]pyridin-6-yl)-2-(2H-tetrazol-5-yl)benzenesulfonamide]
[1]
  Escherichia coli MITC95: 0.1953 µM
[2]
  Klebsiella pneumoniae MITC95: 4.167 µM
[3]
  Escherichia coli MITC95: 0.02344 µM
[4]
  Serratia marcescens MITC95: 9.375 µM
[5]; [12]
  IC50: 46 nM
[6]; [8]
  IC50: 0.994 nM
[7]; [9]
  IC50: 420 nM

## NS(=O)(=O)c1nccc(-c2ccc(CO)cc2)c1-c1nnn[nH]1 [Example 181, 4-(4-(Hydroxymethyl)phenyl)-3-(1H-tetrazol-5-yl)pyridine-2-sulfonamide]
[1]
  Escherichia coli expressing NDM-1 (CLB 30005) MITC95: 1.953 µM
[2]
  Klebsiella pneumoniae expressing VIM-1 (IHMA 599644) MITC95: 18.75 µM
[3]
  Escherichia coli expressing NDM-1 (CLB 30016) MITC95: 0.6727 µM
[4]
  Serratia marcescens expressing IMP-1 (CL5741) MITC95: 12.5 µM
[5]; [10]
  IC50: 184 nM
[6]; [11]
  IC50: 27.9 nM
[7]; [11]
  IC50: 375 nM

## Nc1ccc(-c2ccnc(S(N)(=O)=O)c2-c2nn[nH]n2)cn1 [Example 215, 6-amino-3′-(2H-tetrazol-5-yl)-[3,4′-bipyridine]-2′-sulfonamide]
[1]
  Escherichia coli expressing NDM-1 (CLB 30005) MITC95: 0.1953 µM
[2]
  Klebsiella pneumoniae expressing VIM-1 (IHMA 599644) MITC95: 12.5 µM
[3]
  Escherichia coli expressing NDM-1 (CLB 30016) MITC95: 0.25 µM
[4]
  Serratia marcescens expressing IMP-1 (CL5741) MITC95: 18.75 µM
[5]; [10]
  IC50: 494 nM
[6]; [11]
  IC50: 90.9 nM
[7]; [11]
  IC50: 1860 nM
